# Reference: US20230128194A1, “METHODS AND COMPOSITIONS TO ALTER HEPATIC GABA RELEASE TO TREAT OBESITY-RELATED CONDITIONS” (ARIZONA BOARD OF REGENTS ON BEHALF OF THE UNIVERSITY OF …, priority 2017, published 2023)
# Assays:
# diet-induced obese mice = assay: EOS in drinking water (3 g/L) in obese mice: glucose homeostasis, body mass; assay type: in vivo, mouse
# Method: In a separate set of studies, an ITT was performed in obese mice to establish insulin resistance. Subsequently, EOS was provided ad libitum in the water (3 g/L) for 4 days. An OGTT and ITT were performed on days 3 and 4 of treatment, respectively. The water was then removed, and an ITT was performed 2 weeks later to establish the timing of restoration of insulin resistance after drug removal.
# (§1) Oral glucose (2.5 g/kg; 0.1 mL/10 g body weight; Chem-Impex Int'l Inc., Wood Dale, Ill.) was given to 4 hour fasted individually housed mice. All glucose tolerance tests began at […] and glucose was measured in whole blood, collected from the tail vein, by glucometer (Manufacture #D2ASCCONKIT, Bayer, Leverkusen, Germany) at 0, 15, 30, 60, 90, and 120 minutes after glucose gavage. Blood for serum insulin (oral glucose stimulated insulin secretion; OGSIS) and glucose determination was collected from the tail vein 15 minutes following glucose administration.
# (§2) Intraperitoneal insulin (0.5 U/kg; 0.1 mL/10 g body weight; Sigma Aldrich, St. Louis, Mo.) was given to 4 hour fasted individually housed mice. All insulin tolerance tests began at […] and glucose was measured in whole blood, collected from the tail vein, by glucometer (Manufacture #D2ASCCONKIT, Bayer, Leverkusen, Germany) at 0, 30, 60, 90, and 120 minutes after insulin injection.
# GABA-T = molecular target: T1, GABA-T (Mus musculus, UniProt P61922); assay: liver slice GABA export with GABA-T inhibitor ex vivo; assay type: cell-based; details: 5.3 mM
# T1 construct: from tissue; host or cells: liver slices of lean, obese and obese Kir2.1-expressing mice
# T1 sequence (P61922 29-500): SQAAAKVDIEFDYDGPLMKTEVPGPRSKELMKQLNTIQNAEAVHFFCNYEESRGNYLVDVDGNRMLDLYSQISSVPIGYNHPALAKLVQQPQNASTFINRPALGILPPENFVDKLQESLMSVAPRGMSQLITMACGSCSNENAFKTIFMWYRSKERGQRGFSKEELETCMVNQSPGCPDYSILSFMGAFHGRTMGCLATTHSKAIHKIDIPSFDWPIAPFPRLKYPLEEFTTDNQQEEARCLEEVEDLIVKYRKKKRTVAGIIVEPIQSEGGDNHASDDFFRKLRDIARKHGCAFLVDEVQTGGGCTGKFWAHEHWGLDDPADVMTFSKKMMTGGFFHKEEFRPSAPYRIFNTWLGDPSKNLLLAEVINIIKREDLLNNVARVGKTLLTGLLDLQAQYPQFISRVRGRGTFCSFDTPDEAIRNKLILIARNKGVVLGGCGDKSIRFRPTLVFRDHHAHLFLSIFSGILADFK
# Text: Two liver slices were taken from each mouse.
# [1] = test system: high fat diet-induced obese mice; assay: GABA-T inhibitors (8 mg/day IP) in HFD-induced obese mice: body weight, serum insulin/glucose/glucagon, OGTT, ITT; assay type: in vivo, mouse
# Method: (§3) All animal studies were conducted using male wildtype C57BL/6J mice purchased from Jackson Laboratories or bred in-house (Bar Harbor, Me.). Mice were kept on a 14-hour light/10-hour dark schedule and housed 3-5 mice per cage until 1 week prior to study initiation, at which point animals were individually housed. Studies were conducted in lean chow fed mice (7013 NIH-31, Teklad WI, 3.1 kcal/g, 18% kcal from fat, 59% kcal from carbohydrate, 23% kcal from protein) at 12-16 weeks of age. Studies in diet-induced obese mice dosed intraperitoneally with GABA transaminase inhibitors, mice treated with ethanolamine-O-sulfate in their drinking water, and mice treated with GABA-T targeted or scramble control antisense oligonucleotides (ASO) were performed after 8-10 weeks on a high fat diet (TD 06414, Teklad WI, 5.1 kcal/g, 60.3% kcal from fat, 21.3% kcal from carbohydrate, 18.4% kcal from protein; 20-26 weeks of age). For ASO studies, mice were stratified by body weight and assigned to an injection treatment (control or GABA-T). Studies in obese vagotomy and sham mice were performed after 9 weeks of high fat diet feeding. Unless fasted, mice had ad libitum access to food and water. All studies were approved by The University of Arizona Institutional Animal Care and Use Committee.
# (§4) Wildtype lean and obese mice were randomly divided into treatment groups and dosed daily with 8 mg of ethanolamine-O-sulfate (EOS; Sigma-Aldrich, St. Louis, Mo.), vigabatrin (United States Pharmacopeia, Rockville, Md.) or PBS. Obese sham and vagotomy mice were dosed daily with 8 mg of EOS. In all cases, basal bleeds were taken prior to initiation of an ITT. Lean mice received treatment by oral gavage (0.3 mL/mouse) while obese mice were treated by intraperitoneal injection (0.3 mL/mouse). Pre-treatment studies were conducted in the week immediately prior to beginning drug administration. Daily doses took place at 9 am each day and oral glucose tolerance tests (OGTT) and insulin tolerance tests (ITT) were performed on the third and fourth days of treatment in lean mice, respectively. In wildtype obese mice, OGTT and ITT were performed on the fourth day of treatment in separate cohorts. On the fifth day of treatment, 2DG clearance studies were performed. In sham/vagotomy mice, OGTT and ITT were performed on the fourth and fifth day of treatment, respectively. After a 2-week washout period without treatment injection, a basal bleed and bleed 15 minutes after an oral glucose gavage ([…]) to determine oral glucose stimulated insulin secretion were performed.
# as §1, §2
# (§5) Within 2 hours of collection, blood was left to clot at room temperature for 20 minutes. Thereafter, the blood was centrifuged at 3,000×g for 30 minutes at 4° C. and serum was collected. Serum was stored at −80° C. until metabolite and hormone analyses. A colorimetric assay was used to analyze serum glucose (Cat. #G7519, Pointe Scientific Inc., Canton Mich.). Serum insulin was analyzed by enzyme-linked immunosorbent assay (ELISA; Cat. #80-INSMSU-E01,E10, Alpco, Salem, N.H.). […]
# [2] = test system: obese hepatic vagotomized and sham operated mice; assay: EOS (8 mg/day) in HFD-induced obese sham operated and hepatic vagotomized mice; assay type: in vivo, mouse
# Method: Surgeries were performed in 12-week old male C57BL/6J mice under isoflurane anesthesia. Mice were randomly assigned to a surgical group (sham or vagotomy). A ventral midline incision through the skin and peritoneum allowed us to isolate the hepatic vagus nerve as it branched from the esophagus. In vagotomized mice, the hepatic vagal nerve was severed, while it remained intact in sham operated mice. The peritoneum was sutured with absorbable polyglactin 910 suture and the skin with nylon suture. Mice were given a single post-operative dose of slow release formulated buprenorphine analgesic (1.2 mg/kg slow release, sub-cutaneous). Food intake and body weight were monitored daily and sutures were removed 7 days post-operation.
# as §4, §1, §2
# [3] = test system: high fat diet-induced obese mice; assay: muscle cGMP content (ELISA); assay type: in vivo, mouse; details: day 5
# Method: On the fifth day of EOS or PBS treatment, mice were sacrificed and the quadricep and soleus tissues were collected and frozen on dry ice. Prior to analysis, frozen quadricep were powdered using a liquid nitrogen cooled mortar and pestle to obtain homogenous muscle samples. 15-20 mg of quadricep and the entire soleus tissue (6-12 mg) were homogenized in 200 μL of a 5% trichloroacetic acid solution. Following 15 minutes of centrifugation at 3,000×g at 4° C., supernatant was transferred to a fresh tube for analysis of muscle cGMP by enzyme-linked immunosorbent assay (ELISA; ADI-900-164, Enzo Life Sciences, Farmingdale, N.Y.).
# lean mice = assay: GABA-T inhibitors (8 mg/day oral gavage) in lean mice: glucose homeostasis; assay type: in vivo, mouse
# Method: as §3, §4, §1, §2, §5
# [4] = 8 mg/day IP, four days, relative to pre-treatment
compound,measurement,setting,value
"NCCOS(=O)(=O)O [EOS, ethanolamine-O-sulfate]",response after withdrawal,diet-induced obese mice; 2 weeks without EOS in the drinking water,washed out
same,body mass,"diet-induced obese mice; diet-induced obese mice, 3 g/L in drinking water, 7 weeks",dramatically decreased
same,measures of glucose homeostasis,"diet-induced obese mice; obese mice, 3 g/L in drinking water, 4 days",similarly improved
same,GABA export,GABA-T; obese Kir2.1 expressing liver slices,decreased
same,GABA export,GABA-T; obese control liver slices,decreased
same,glucose:insulin ratio,[1]; [4],increased
same,serum glucose,[1]; [4],decreased
same,serum insulin,[1]; [4],decreased
same,body weight,"[1]; 8 mg/day IP, through 5 days, vs saline injected mice",remained similar
same,serum glucagon,"[1]; 5 days, relative to control mice",decreased
same,glucose stimulated serum insulin,"[1]; treatment day 4, relative to pre-treatment",tended to be decreased
same,glucose stimulated serum insulin after washout,[1]; two-weeks washout,markedly increased
same,serum insulin and glucose:insulin ratio after washout,[1]; two-weeks washout,return of serum insulin and the glucose:insulin ratio to pre-treatment levels
same,insulin sensitivity assessed by insulin tolerance test (ITT),[1]; within 4 days of initiating treatment,improved
same,responses to EOS in vagotomized mice,[2]; hepatic vagotomized obese mice,eliminated most of the responses
same,serum glucose,[2]; hepatic vagotomized obese mice,decrease
same,glucose stimulated serum insulin,[2]; sham operated obese mice,diminished
same,glucose:insulin ratio,[2]; sham operated obese mice,elevated
same,insulin sensitivity by insulin tolerance test,[2]; sham operated obese mice,tended to improve
same,oral glucose tolerance,[2]; sham operated obese mice,improved
same,serum glucose,[2]; sham operated obese mice,decreased
same,serum insulin,[2]; sham operated obese mice,decreased
same,all parameters after washout,"[2]; sham operated obese mice, 2-week washout",restored all parameters to pre-treatment measures
same,body weight between surgical groups,"[2]; sham vs vagotomized, during EOS treatment",did not differ
same,cGMP in quad,[3],no effect
same,increase of cGMP in the soleus,[3],59%
same,serum glucose,lean mice,decreased
same,glucose tolerance,lean mice; 8 mg/day,no effect
same,insulin sensitivity,lean mice; 8 mg/day,no effect
same,serum insulin concentrations,lean mice; 8 mg/day,no effect
same,glucose homeostasis,lean mice; acute,does not alter
